The target in this test is hLPA1 (Homo sapiens, UniProt Q92633). Nature of the test: LPA1 functional antagonist assay (LPA-induced calcium flux in CHO cells overexpressing human LPA1). Format: cell-based. On the set-up: expressed in transfected cells; host or cells: Chinese hamster ovary (CHO) cells. To be noted: antagonist mode, inhibition of calcium flux induced by 10 nM LPA, read-out: hLPA1 IC50. As for the experimental part: The effectiveness of compounds of the present invention as LPA1 inhibitors can be determined in an LPA1 functional antagonist assay as follows:
Chinese hamster ovary cells overexpressing human LPA1 were plated overnight (15,000 cells/well) in poly-D-lysine coated 384-well microplates (Greiner bio-one, Cat #781946) in DMEM/F12 medium (Gibco, Cat #11039). Following overnight culture, cells were loaded with calcium indicator dye (AAT Bioquest Inc, Cat #34601) for 30 minutes at 37° C. The cells were then equilibrated to room temperature for 30 minutes before the assay. Test compounds solubilized in DMSO were transferred to 384 well non-binding surface plates (Corning, Cat #3575) using the Labcyte Echo acoustic dispense and diluted with assay buffer [1×HBSS with calcium/magnesium (Gibco Cat #14025-092), 20 mM HEPES (Gibco Cat #15630-080) and 0.1% fatty acid free BSA (Sigma Cat #A9205)] to a final concentration of 0.5% DMSO. Diluted compounds were added to the cells by FDSS6000 (Hamamatsu) at final concentrations ranging from 0.08 nM to 5 μM. and were then incubated for 20 min at room temperature at which time LPA (Avanti Polar Lipids Cat #857130C) was added at final concentrations of 10 nM to stimulate the cells. The compound IC50 value was defined as the concentration of test compound which inhibited 50% of the calcium flux induced by LPA alone. IC50 values were determined by fitting data to a 4-parameter logistic equation (GraphPad Prism, San Diego Calif.).
In general terms: Calcium flux is commonly read through the fluorescence of an indicator in the cells.

hLPA1, sequence (Q92633 whole entry): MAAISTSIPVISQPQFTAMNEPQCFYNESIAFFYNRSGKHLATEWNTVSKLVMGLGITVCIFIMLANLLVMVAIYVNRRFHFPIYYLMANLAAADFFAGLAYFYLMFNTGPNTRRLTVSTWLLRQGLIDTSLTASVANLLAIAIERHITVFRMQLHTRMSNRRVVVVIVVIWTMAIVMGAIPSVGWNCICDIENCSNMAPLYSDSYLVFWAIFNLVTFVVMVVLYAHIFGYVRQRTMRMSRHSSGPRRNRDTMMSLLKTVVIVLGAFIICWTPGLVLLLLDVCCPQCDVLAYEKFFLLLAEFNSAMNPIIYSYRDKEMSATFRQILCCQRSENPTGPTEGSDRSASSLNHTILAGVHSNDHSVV

`C[C@@H](OC(=O)Nc1c(-c2ccc(C34CCC(CC(=O)O)(CC3)OC4)c(F)c2)cnn1C)c1ccccc1` [Example 30, 2-(4-(2-fluoro-4-(1-methyl-5-((((R)-1-phenylethoxy)carbonyl)amino)-1H-pyrazol-4-yl)phenyl)-2-oxabicyclo[2.2.2]octan-1-yl)acetic acid]: the IC50 (in general, the concentration that gives 50% inhibition) came out at 365 nM.

Consider `Cc1noc(-c2ccc(C34CCC(CC(=O)O)(CC3)OC4)cc2F)c1NC(=O)O[C@H](C)c1ccccc1` [Example 21, 2-(4-(3-fluoro-4-(3-methyl-4-((((R)-1-phenylethoxy)carbonyl)amino)isoxazol-5-yl)phenyl)-2-oxabicyclo[2.2.2]octan-1-yl)acetic acid], for which the IC50 was found to be 95 nM.

As for `Cc1noc(C23CCC(c4ccc(CC(=O)O)cc4)(CC2)OC3)c1NC(=O)O[C@H](C)c1ccccc1` [Example 54, (R)-2-(4-(4-(3-methyl-4-(((1-phenylethoxy)carbonyl)amino)isoxazol-5-yl)-2-oxabicyclo[2.2.2]octan-1-yl)phenyl)acetic acid], the 50% inhibitory concentration (IC50) worked out at 88 nM.

As for `Cc1noc(-c2ccc(C34CCC(CC(=O)O)(CC3)OC4)cc2)c1NC(=O)O[C@H](C)c1ccccc1` [Example 1, 2-(4-(4-(3-methyl-4-((((R)-1-phenylethoxy)carbonyl)amino)isoxazol-5-yl)phenyl)-2-oxabicyclo [2.2.2]octan-1-yl)acetic acid], the IC50 was 116 nM.

In the case of `Cc1noc(-c2ccc(C34CCC(CC(=O)O)(CC3)OC4)cc2)c1NC(=O)O[C@H](C)c1ccccc1Cl` [Example 12, 2-(4-(4-(4-((((R)-1-(2-chlorophenyl)ethoxy)carbonyl)amino)-3-methylisoxazol-5-yl)phenyl)-2-oxabicyclo[2.2.2]octan-1-yl)acetic acid], the IC50 came out at 72 nM.

In the case of `Cc1noc(-c2ccc(C34CCC(CC(=O)O)(CC3)OC4)cc2F)c1NC(=O)OC(C)c1cccc(Cl)c1` (racemic) [Example 25, (±)-2-(4-(4-(4-(((1-(3-chlorophenyl)ethoxy)carbonyl)amino)-3-methyl-isoxazol-5-yl)-3-fluorophenyl)-2-oxabicyclo[2.2.2]octan-1-yl)acetic acid], the half-maximal inhibitory concentration (IC50) was found to be 345 nM.

With `Cc1noc(-c2ccc(C34CCC(CC(=O)O)(CC3)OC4)cc2)c1COC(=O)N(C)C1CCCC1` [Example 3, 2-(4-(4-(4-(((cyclopentyl(methyl)carbamoyl)oxy)methyl)-3-methylisoxazol-5-yl)phenyl)-2-oxabicyclo[2.2.2]octan-1-yl)acetic acid], the IC50 is 317 nM.

As to `Cc1ccccc1[C@@H](C)OC(=O)Nc1c(C)noc1-c1ccc(C23CCC(CC(=O)O)(CC2)OC3)c(F)c1` [Example 17, 2-(4-(2-fluoro-4-(3-methyl-4-((((R)-1-(o-tolyl)ethoxy)carbonyl)amino)isoxazol-5-yl)phenyl)-2-oxabicyclo[2.2.2]octan-1-yl)acetic acid], the IC50 turned out to be 119 nM.

On to `Cc1noc(-c2ccc(C34CCC(CC(=O)O)(CC3)CO4)c(F)c2)c1NC(=O)O[C@H](C)c1ccccc1` [Example 50, 2-(1-(2-fluoro-4-(3-methyl-4-((((R)-1-phenylethoxy)carbonyl)amino)isoxazol-5-yl)phenyl)-2-oxabicyclo[2.2.2]octan-4-yl)acetic acid], for which the concentration for half-maximal inhibition (IC50) turned out to be 57 nM.

Regarding “2-(4-(4-(4 2-(4-(4-(4-((((cyclobutyl-methyl)carbamoyl)oxy)methyl)-3-methylisoxazol-5-yl)phenyl)-2-oxabicyclo[2.2.2]octan-1-yl)acetic acid [Example 35]”, the half-maximal inhibitory concentration (IC50) came out at 655 nM.

With `CN(CCc1ccc(Cl)cc1)C(=O)OCc1c(-c2ccc(C34CCC(CC(=O)O)(CC3)OC4)cc2)cnn1C` [Example 41, 2-(4-(4-(5-((((4-chlorophenethyl)(methyl)carbamoyl)oxy)methyl)-1-methyl-1H-pyrazol-4-yl)phenyl)-2-oxabicyclo[2.2.2]octan-1-yl)acetic acid], the IC50 stood at 2790 nM.
